One experiment concerns the target SARS-CoV-2 spike protein (Severe acute respiratory syndrome coronavirus 2, UniProt P0DTC2). In kind it is binding.
The subject of a further experiment is IgG. Kind of experiment: Model protein (IgG) capture on nanocoated facemask pieces, Gel-Code protein staining dye. It is filed as binding. As to conditions: FIG. 7, IgG incubated 30 minutes, PBS wash, colour change, relative to uncoated facemask. An excerpt: FIG. 7 depicts the relative binding of a model protein to pieces of facemasks coated with a different one of three bifunctional silane chemicals as well as to uncoated had hydrophobic controls. With reference to FIG. 7, pairs of pieces of standard facemasks (Machimpex, catalogue #1005-544-988) were nanocoated with one of the various chemicals. One pair, shown at the far left, was left uncoated. […] IgG was used as a model for protein capture as it behaved similar to the full-length coronavirus spike protein in plate-binding assays and is likely to have similar activity to that of bacterial coat proteins. The IgG was applied to the facemask fabric and incubated for 30 minutes prior to washing in phosphate buffered saline (PBS). Detection of the captured protein after washing was performed by applying 200 μl Gel-Code protein staining dye (Thermo Fisher Scientific, catalogue #24590) directly to the materials and incubating for one hour. Color change indicating protein capture was documented by photography.

In another experiment the test system is Human IgG. As to conditions: FIGS. 4A and 4B; all concentration levels that included IgG, starting at 1 μg/ml; compared with high-protein-binding ELISA plates.

Molecules are shown by their SMILES.

`CCO[Si](CCCNC(=O)/C=C\C(=O)O)(OCC)OCC` [CCH8845, triethoxysilylpropylmaleamic acid]: at SARS-CoV-2 spike protein, the “overall capability of binding the coronavirus spike protein” value is “bind about equally well as CCH9021, CCH4502, and CCH1053”.

In the case of `CCO[Si](CCCNCCN)(OCC)OCC` [CCH9021, N-(2-aminoethyl)-3-aminopropyltriethoxysilane], at SARS-CoV-2 spike protein, the “relative binding of SARS-CoV-2 spike glycoprotein” value was “slightly underperformed the high-protein-binding ELISA plate”. Moreover, the “capture of model protein (IgG) onto facemask” value is recorded as “efficiently captured the protein onto facemask relative to the uncoated facemask” in the experiment with IgG and “appears to have captured more efficiently” in the experiment with IgG (listed as NCT9021).

Consider `CO[Si](C)(CCCNCCCN(C)C)OC` [CCH699020, 3-(N,N-dimethylaminopropyl)aminopropylmethyldimethoxysilane], for which the “relative binding of SARS-CoV-2 spike glycoprotein applied at different concentrations” value on SARS-CoV-2 spike protein is “control high-protein-binding ELISA plate significantly outperformed the chemical coating”.

For `CCO[Si](CCCNCCN)(OCC)OCC` [N-(2-aminoethyl)-3-aminopropyltriethoxysilane], in the experiment with Human IgG, the “relative binding of IgG applied at different concentrations” value is given as “significantly outperformed the high-protein-binding ELISA plates”.

These data come from US12128260B2, “Pathogen capture using active surface modification” (priority 2020, dated 2024).
